Where “and” joins values, the source holds several entries; their conditions need not be identical. Identical values can stand only once.
Legend:
[1] = set-up: method as in PMID 20692328; conditions: cited from earlier work
[2] = system: UVB irradiated human melanocytes; set-up: method as in PMID 19274591; conditions: cited from earlier work
[3] = Thermogravimetric (TG) analysis, thermal stability; format: physicochemical; conditions: air atmosphere, 10 °C·min^−1; for Td onset, the onset of decomposition: TG; for Td max, temperature of the fastest mass loss of the sample: TG/DTG
Method: Samples of 2–5 mg, loaded in aluminium crucibles, were heated from 30 °C to 600 °C at the heating rate of 10 °C·min^−1, in the air atmosphere (25 mL·min^−1) with nitrogen flow (10 mL·min^−1) as the purge gas.

[4] = DPPH antioxidant activity of solution obtained after skin extraction; set-up: species or system pig; conditions: after 24 h penetration
Method: (§1) To determine the antioxidant capacity of ferulic acid and its derivatives the DPPH method was used. The analyses were performed using the Hitachi UV-Vis Spectrophotometer U-5100 at the wavelength λ = 517 nm. Trolox (6-hydroxy-2,5,7,8-tetramethylchroman-2-carboxylic acid) was used as a reference substance. The antioxidant activity was expressed as %RSA and mmol Trolox dm^−3. […]. Blank samples without antioxidant were prepared in the same way. The tubes were wrapped in aluminum foil and were sealed with a stopper and then incubated for 10 min at room temperature. After this time, spectrophotometric measurements were carried out in triplicate. For determination of antioxidant activity of the acceptor fluid after 24 h of permeation and solutions obtained by extraction of the skin obtained after penetration study, 0.15 mL samples of each solutions were separately added to 2.85 mL of DPPH solution and spectrophotometric measurements were performed. The antioxidant activity was expressed as mmol Trolox·dm^−3.
The accumulation of the FA and its derivatives in the skin after 24 h permeation process through the skin were determined using a modification of the methods described by Janus et al. and Taokaew et al.. After 24 h of permeation experiment, the skin samples were removed from the Franz diffusion cell, washed three times with 0.5% sodium lauryl sulfate solution and dried at room temperature. Next, after cutting out the diffusion area of each skin sample, the samples were immersed in 2 mL of absolute ethanol and continuously stirred at 300 rpm at room temperature for 24 h. The samples were then centrifuged, and clear solutions were collected and analyzed by HPLC method for the determination of FA and its derivatives. The accumulation of the active substance in the skin was calculated by dividing the amount of the drug remaining in the skin by a mass of skin sample and was expressed in mass active substance per mass of the skin (µg g^−1). For solution obtained after skin extraction, the antioxidant activity and total polyphenol content were also determined (as described in Section 2.5.1 and Section 2.5.2).

[5] = DPPH antioxidant activity of acceptor fluid after 24 h permeation; set-up: species or system pig; conditions: after 24 h penetration
Method: as §1
(§2) The permeation experiments were performed using Franz diffusion cells (Phoenix DB-6, ABL&E-JASCO, Wien, Austria). The diffusion was 1 cm^2. The volume of the acceptor chamber was 8 mL. This chamber was filled with PBS solution (pH 7.4). During experiment, a constant temperature of 37.0 ± 0.5 °C was maintained in each diffusion unit. The acceptor chamber content was stirred with a magnetic stirring bar at the same speed for all cells. The prepared pig skin was mounted on each donor chamber. As previously mentioned, only undamaged skin pieces with an even thickness were chosen for experiments. Thereafter, the hydrogel or emulsion vehicle/preparation in 1 g portion was put on the skin in donor cells. For comparison, 1 mL ethanolic solution containing either FA or its derivatives was applied to another donor chamber. The amount of the FA and its derivatives applied on the skin expressed as the mass of ferulic acid was 0.01 g and was the same for each carrier. The penetration experiments were carried out for 24 h. The samples were collected after 1 h, 2 h, 3 h, 4 h, 5 h, 6 h, 8 h, and 24 h. Aliquots of the acceptor fluid (0.5 mL) were withdrawn and to each acceptor chamber the same volume of fresh PBS solution was added. The FA and its derivatives’ concentrations in the acceptor fluid were measured by HPLC method (Section 2.6.2). The cumulative mass (µg·cm^−2) and penetration rate (µg·cm^−2·h^−1) were calculated. The acceptor fluid collected after 24 h of permeation was also measured for antioxidant activity and total polyphenol content (as described in Section 2.5.1 and Section 2.5.2).

[6] = DPPH radical scavenging assay of the compounds
Method: as §1

[7] = n-octanol/water partition coefficient by shake flask method; format: physicochemical; conditions: for log PO/W: n-octanol/water, shake flask, 25 °C
Method: The n-octanol/water partition coefficient (log PO/W) was determined for ferulic acid and its derivatives by shake flask method. n-Octanol saturated with water and water saturated with n-octanol were prepared at 25 °C, 24 h prior to their use in the experiments. Then, a sample of 10 mg of compound was weighed with the accuracy of 0.01 mg in a 16 cm^3 screwed vial and dissolved in 5 cm^3 of n-octanol. Next, 5 cm^3 of water was added to the vial. The resulting two-phase mixture was kept in water bath shaker at 25 °C for 2 h and was strongly shaken to reach the partition equilibrium of the compound between the phases. Then the mixture was left unshaken for 30 min and 1.0 cm^3 of water phase was carefully taken out to centrifuge tube. The sample was next centrifuged for 10 min at 7500 rpm at 25 °C to ensure the most precise phase separation. The concentration of compound in water phase was then determined using HPLC method. The partition coefficient, log PO/W was calculated according to the formula: logPO/W=logC0V0−CWVW/CWVW where: C0—initial concentration of the compound in n-octanol, calculated based on the weighed mass of compound, mg·cm^−^3; V0—volume of n-octanol, cm^3; CW—concentration of the compound in water after partition equilibrium, mg·cm^−^3; VW—volume of water, cm^3.

[8] = Skin permeation in Franz diffusion cells; format: in vitro ADME, pig; conditions: 24 h, 10 mg as FA applied
Method: In the experiment, abdominal porcine skin coming from the local slaughterhouse was used. Pig skin was chosen because of its similar permeability to human skin [34, 35]. The fresh abdominal porcine skin was washed several times in PBS buffer pH 7.4. The skin of 0.5 mm in thickness was dermatomed and divided into 2 cm × 2 cm pieces. The skin samples were wrapped in aluminum foil and stored at −20 °C until use, not longer than 3 months. According to Badran et al., this storage time at this temperature is safe to keep skin barrier properties. Immediately before the experiment, the skin samples were slowly thawed at room temperature for 30 min and then were hydrated by PBS pH 7.4 [37, 38, 39, 40]. Such prepared skin was mounted on donor chamber. Only the undamaged skin pieces with an even thickness were chosen for experiments. The integrity of the skin was checked by impedance measurement using an LCRmeter4080 (Conrad Electronic, Hirschau, Germany), operated in parallel mode at an alternating frequency of 120 Hz (error at kΩ values < 0.5%). The tips of measuring probes were immersed in the donor and acceptor chamber containing PBS (pH 7.4), as described previously. Only skin samples of impedance > 3 kΩ were applied as such impedance is similar to the electrical resistance of human skin [42].
The concentration of FA and its derivatives in the acceptor fluid and in the fluid obtained by skin extraction after permeation experiment was assessed using liquid chromatography system (Knauer, Berlin, Germany) consisting of a model 2600 UV detector, Smartline model 1050 pump and Smartline model 3950 autosampler. HPLC was controlled by ClarityChrom 2009 software. The detector was operated at 280 nm. The separations were performed on 125 mm × 4 mm ID chromatographic column filled with Hyperisil ODS (C18), particle size 5 µm, in isocratic mode. The mobile phase consisted of acetonitrile, 1% acetic acid, and MeOH (47/47/6 v/v/v) and was pumped at flow rate of 1 mL min^−1. The column temperature was set at 25 °C, and the injection volume was 20 µL.
as §2

[9] = molar ratio antioxidant:DPPH 0.1, 10 min
[10] = molar ratio antioxidant:DPPH 1.0, 10 min
[11] = molar ratio antioxidant:DPPH 2.0, 10 min
[12] = from solution in 70% (v/v) ethanol

Structure (SMILES)	skin permeation compared with pure FA [1]	Td onset, the onset of decomposition [3] [°C]	Td max, temperature of the fastest mass loss of the sample [3] [°C]	DPPH antioxidant activity of the solution obtained after skin extraction ([4]; emulsion)	DPPH antioxidant activity of the solution obtained after skin extraction ([4]; ethanol solution) [a mmol Trolox dm^−3]	DPPH antioxidant activity of the solution obtained after skin extraction ([4]; hydrogel)	DPPH antioxidant activity of the acceptor fluid ([5]; emulsion)	DPPH antioxidant activity of the acceptor fluid ([5]; ethanol solution)	DPPH antioxidant activity of the acceptor fluid ([5]; hydrogel)	Antioxidant activity %RSA [6, 9]	Antioxidant activity, Trolox equivalents [6, 9]	Antioxidant activity %RSA [6, 10] [b %RSA]	Antioxidant activity, Trolox equivalents [6, 10] [b mmol Trolox dm^−3]	Antioxidant activity %RSA [6, 11]	Antioxidant activity, Trolox equivalents [6, 11]	log PO/W [7]	Cumulative Permeation Mass ([8]; from emulsion) [a µg FA·cm^−2]	Cumulative Permeation Mass ([8]; from hydrogel) [a µg FA·cm^−2]	Cumulative Permeation Mass [8, 12]	also measured
COc1cc(/C=C/CO)ccc1O [CA, coniferyl alcohol]	permeated the skin to a higher degree than pure FA	–	–	–	–	–	–	–	–	–	–	–	–	–	–	–	–	–	–	–
COc1cc(/C=C/C=O)ccc1O [CD, coniferyl aldehyde]	permeated the skin to a higher degree than pure FA	–	–	–	–	–	–	–	–	–	–	–	–	–	–	–	–	–	–	–
CCOC(=O)/C=C/c1ccc(O)c(OC)c1 [FAEE, ferulic acid ethyl ester]	permeated the skin to a higher degree than pure FA	–	–	–	–	–	–	–	–	–	–	–	–	–	–	–	–	–	–	production of ROS [2]: reduced the production of ROS
CCCOC(=O)CN.COc1cc(/C=C/C(=O)O)ccc1O [GPr[FA], glycine propyl ester ferulate]	–	129.6	145.3	0.235 ± 0.037 a mmol Trolox dm^−3	0.257 ± 0.026	0.298 ± 0.009 a mmol Trolox dm^−3	0.059 ± 0.010 a mmol Trolox dm^−3	0.097 ± 0.021 b mmol Trolox dm^−3	0.069 ± 0.002 a mmol Trolox dm^−3	17.6 ± 0.001 %RSA and 17.6 ± 0.001 a %RSA	0.099 ± 0.001 mmol Trolox dm^−3 and 0.099 ± 0.001 a mmol Trolox dm^−3	78.0 ± 0.001	0.681 ± 0.001	86.6 ± 0.001 %RSA and 86.6 ± 0.001 b %RSA	0.764 ± 0.001 mmol Trolox dm^−3 and 0.764 ± 0.001 b mmol Trolox dm^−3	0.582 ± 0.019	101.70 ± 26.47	268.16 ± 12.71	378.26 ± 2.29 a µg FA·cm^−2	Share of compound partitioned to n-octanol ([7]; from log PO/W): 79%
CCCOC(=O)[C@@H](N)CC(C)C.COc1cc(/C=C/C(=O)O)ccc1O [LPr[FA], L-leucine propyl ester ferulate]	–	126.0	156.0	0.257 ± 0.014 ab mmol Trolox dm^−3	0.255 ± 0.038	0.298 ± 0.009 mmol Trolox dm^−3 and 0.320 ± 0.030 ab mmol Trolox dm^−3	0.053 ± 0.005 mmol Trolox dm^−3 and 0.053 ± 0.005 a mmol Trolox dm^−3	0.098 ± 0.011 mmol Trolox dm^−3 and 0.098 ± 0.011 a mmol Trolox dm^−3	0.063 ± 0.009 mmol Trolox dm^−3 and 0.063 ± 0.009 a mmol Trolox dm^−3	17.6 ± 0.001 %RSA and 17.6 ± 0.001 a %RSA	0.098 ± 0.001 mmol Trolox dm^−3 and 0.098 ± 0.001 a mmol Trolox dm^−3	79.5 ± 0.001	0.696 ± 0.001	87.8 ± 0.001 %RSA and 87.8 ± 0.001 b %RSA	0.776 ± 0.001 mmol Trolox dm^−3 and 0.776 ± 0.001 b mmol Trolox dm^−3	0.454 ± 0.009	119.29 ± 19.72	267.48 ± 24.57	415.12 ± 8.71 µg FA·cm^−2 and 415.12 ± 8.71 b µg FA·cm^−2	DPPH antioxidant activity of the solution obtained after skin extraction ([4]; ethanol solution, listed as Leu[FA]): 0.255 ± 0.038 mmol Trolox dm^−3

From paper PMC9861623, “New Ferulic Acid and Amino Acid Derivatives with Increased Cosmeceutical and Pharmaceutical Potential” (Pharmaceutics, 2022)
